Data reported in ChEMBL document CHEMBL5550165, “Novel quinoxaline analogs as telomeric G-quadruplex ligands exert antitumor effects related to enhanced immunomodulation” (Eur J Med Chem, 2024).
pIC50: −log10 of the molar value. Active and inactive are the calls of the source. The rule behind the calls is not given here.

Key:
Quadruplex DNA = experiment: Stabilization of G-quadruplex 5-FAM-telomeric24 DNA-TAMRA-3 (unknown origin) assessed as change in melting temperature incubated for 2 hrs by FRET assay; assay type: nucleic-acid assay
[1] = Cytotoxicity against human MCF-10A cells incubated for 24 hrs by CCK-8 reagent based spectrophotometric analysis; assay type: toxicity, cell-based
MDA-MB-231 = experiment: Cytotoxicity against human MDA-MB-231 cells incubated for 24 hrs by CCK-8 reagent based spectrophotometric analysis; assay type: functional, cell-based; details: MDA-MB-231, 24 h
4T1 [2] = experiment: Cytotoxicity against mouse 4T1 cells incubated for 24 hrs by CCK-8 reagent based spectrophotometric analysis; assay type: functional, cell-based; details: 4T1, 24 h
MCF7 = experiment: Cytotoxicity against human MCF7 cells incubated for 24 hrs by CCK-8 reagent based spectrophotometric analysis; assay type: functional, cell-based; details: MCF7, 24 h
U2OS = experiment: Cytotoxicity against human U2OS cells incubated for 24 hrs by CCK-8 reagent based spectrophotometric analysis; assay type: functional, cell-based
BMDC = experiment: Induction of immunogenic cell death in BALB/c mouse BMDC cells co-cultured with mouse 4T1 cells assessed as increase in CD11c+ CD80+ CD86 cells maturation at 5 uM incubated for 24 hrs by flow cytometry (reference value: 69.4 %); assay type: functional
4T1 [3] = experiment: Antitumor activity against mouse 4T1 cells implanted in BALB/c mouse assessed as reduction in tumor weight at 2 mg/kg,ip every other day for 14 days; assay type: functional, organism-based; details: time 14.0 day
[4] = Toxicity in BALB/c mouse implanted with mouse 4T1 cells assessed as decrease in body weight at 2 mg/kg,ip every other day for 14 days; assay type: organism-based; details: in vivo, 336 h, time 14 day
[5] = Toxicity in BALB/c mouse implanted with mouse 4T1 cells assessed as decrease in heart weight at 2 mg/kg,ip every other day for 14 days; assay type: organism-based; details: in vivo, 336 h, time 14 day
[6] = Toxicity in BALB/c mouse implanted with mouse 4T1 cells assessed as decrease in liver weight at 2 mg/kg,ip every other day for 14 days; assay type: organism-based; details: in vivo, 336 h, time 14 day
[7] = Toxicity in BALB/c mouse implanted with mouse 4T1 cells assessed as decrease in spleen weight at 2 mg/kg,ip every other day for 14 days; assay type: organism-based; details: in vivo, 336 h, time 14 day
[8] = Toxicity in BALB/c mouse implanted with mouse 4T1 cells assessed as decrease in lung weight at 2 mg/kg,ip every other day for 14 days; assay type: organism-based; details: in vivo, 336 h, time 14 day
[9] = Toxicity in BALB/c mouse implanted with mouse 4T1 cells assessed as decrease in kidney weight at 2 mg/kg,ip every other day for 14 days; assay type: organism-based; details: in vivo, 336 h, time 14 day
4T1 [10] = experiment: Antitumor activity against mouse 4T1 cells implanted in BALB/c mouse assessed as damage in tumor tissue at 2 mg/kg,ip every other day for 14 days by hematoxylin and eosin staining analysis; assay type: functional, organism-based; details: time 14.0 day
4T1 [11] = experiment: Antitumor immunity against mouse 4T1 cells implanted in BALB/c mouse assessed as increase in proportion of CD4+ T cells in spleen at 2 mg/kg,ip every other day for 14 days by flow cytometry; assay type: functional, organism-based; details: time 14.0 day
4T1 [12] = experiment: Antitumor immunity against mouse 4T1 cells implanted in BALB/c mouse assessed as increase in proportion of CD8+ T cells in spleen at 2 mg/kg,ip every other day for 14 days by flow cytometry; assay type: functional, organism-based; details: time 14.0 day
4T1 [13] = experiment: Antitumor immunity against mouse 4T1 cells implanted in BALB/c mouse assessed as increase in proportion of CD4+ T cells in tumor at 2 mg/kg,ip every other day for 14 days by flow cytometry; assay type: functional, organism-based; details: time 14.0 day
4T1 [14] = experiment: Antitumor immunity against mouse 4T1 cells implanted in BALB/c mouse assessed as increase in proportion of CD8+ T cells in tumor at 2 mg/kg,ip every other day for 14 days by flow cytometry; assay type: functional, organism-based; details: time 14.0 day
4T1 [15] = experiment: Antitumor immunity against mouse 4T1 cells implanted in BALB/c mouse assessed as increase in proportion of CD4+ T cells in tumor at 2 mg/kg,ip every other day for 14 days by immunohistochemistry staining based analysis; assay type: functional, organism-based; details: time 14.0 day
4T1 [16] = experiment: Antitumor immunity against mouse 4T1 cells implanted in BALB/c mouse assessed as increase in proportion of CD8+ T cells in tumor at 2 mg/kg,ip every other day for 14 days by immunohistochemistry staining based analysis; assay type: functional, organism-based; details: time 14.0 day
4T1 [17] = experiment: Antitumor immunity against mouse 4T1 cells implanted in BALB/c mouse assessed as increase in serum IL-6 level at 2 mg/kg,ip every other day for 14 days by ELISA; assay type: functional, organism-based; details: time 14.0 day
4T1 [18] = experiment: Antitumor immunity against mouse 4T1 cells implanted in BALB/c mouse assessed as increase in serum TNF-alpha level at 2 mg/kg,ip every other day for 14 days by ELISA; assay type: functional, organism-based; details: time 14.0 day

Row | SMILES | ΔTm (Quadruplex DNA) | IC50 at 24 h [1] | pIC50 (MDA-MB-231) | pIC50 (4T1 [2]) | pIC50 (MCF7) | pIC50 (U2OS) | further results
1 | CN(C)CCN(C)c1ccc(-c2nc3ccc(F)cc3nc2-c2ccc(N(C)CCN(C)C)cc2)cc1 | 6 °C | 8.8 µM | 5.51 | 5.25 | 5.38 | 5.51 | –
2 | CN(CCO)c1ccc(-c2nc3ccc(C(F)(F)F)cc3nc2-c2ccc(N(C)CCO)cc2)cc1 | 0.5 °C | 20.5 µM | < 4.40 | < 4.40 | < 4.40 | 4.71 | –
3 | CN(CCO)c1ccc(-c2nc3cc4ccccc4cc3nc2-c2ccc(N(C)CCO)cc2)cc1 | 0.9 °C | 11.1 µM | 4.68 | 4.44 | < 4.40 | < 4.40 | –
4 | OCCN1CCN(c2ccc(-c3nc4ccc(C(F)(F)F)cc4nc3-c3ccc(N4CCN(CCO)CC4)cc3)cc2)CC1 | 1.5 °C | 4.1 µM | 5.70 | 5.37 | 5.20 | 5.43 | –
5 | COc1cccc2c1C(=O)c1c(O)c3c(c(O)c1C2=O)C[C@@](O)(C(=O)CO)C[C@@H]3O[C@H]1C[C@H](N)[C@H](O)[C@H](C)O1 [DOXORUBICIN] | – | – | – | – | – | – | Activity (BMDC): 81.5%; Activity (4T1 [3]): Active; Activity [4]: Toxic; Activity [5]: Toxic; Activity [6]: Toxic; Activity [7]: Toxic; Activity [8]: Toxic; Activity [9]: Toxic; Activity (4T1 [10]): Active; Activity (4T1 [11]): Active; Activity (4T1 [12]): Active; Activity (4T1 [13]): Active; Activity (4T1 [14]): Active; Activity (4T1 [15]): Active; Activity (4T1 [16]): Active; Activity (4T1 [17]): Active; Activity (4T1 [18]): Active
6 | CN(C)CCN1CCN(c2ccc(-c3nc4ccc(F)cc4nc3-c3ccc(N4CCN(CCN(C)C)CC4)cc3)cc2)CC1 | 8.3 °C | 2.7 µM | 5.54 | 5.64 | 5.21 | 5.44 | –
7 | COc1ccc2nc(-c3ccc(N(C)CCN(C)C)cc3)c(-c3ccc(N(C)CCN(C)C)cc3)nc2c1 | 6.6 °C | 13.7 µM | 5.21 | 5.03 | 5.24 | 5.06 | –
8 | CN(C)CCN1CCN(c2ccc(-c3nc4ccc(C(F)(F)F)cc4nc3-c3ccc(N4CCN(CCN(C)C)CC4)cc3)cc2)CC1 | 6.6 °C | 1.5 µM | 5.70 | 5.77 | 5.37 | 5.46 | –
9 | CN(C)CCN1CCN(c2ccc(-c3nc4cc5ccccc5cc4nc3-c3ccc(N4CCN(CCN(C)C)CC4)cc3)cc2)CC1 | 5.7 °C | 3.7 µM | 5.28 | 5.40 | 5.08 | 4.88 | –
10 | CN(C)CCN(C)c1ccc(-c2nc3cc4ccccc4cc3nc2-c2ccc(N(C)CCN(C)C)cc2)cc1 | 7.9 °C | 1.3 µM | 5.85 | 5.54 | 5.72 | 5.82 | –
11 | COc1ccc2nc(-c3ccc(N(C)CCO)cc3)c(-c3ccc(N(C)CCO)cc3)nc2c1 | 0.1 °C | 24.1 µM | < 4.40 | < 4.40 | < 4.40 | < 4.40 | –
12 | COc1ccc2nc(-c3ccc(N4CCN(CCN(C)C)CC4)cc3)c(-c3ccc(N4CCN(CCN(C)C)CC4)cc3)nc2c1 | 5.6 °C | 3.4 µM | 5.64 | 5.28 | 5.02 | 5.16 | –
13 | COc1ccc2nc(-c3ccc(N4CCN(CCO)CC4)cc3)c(-c3ccc(N4CCN(CCO)CC4)cc3)nc2c1 | 4.1 °C | 6.7 µM | 5.89 | 4.66 | 4.80 | 5.10 | –
14 | CN(CCO)c1ccc(-c2nc3ccc(F)cc3nc2-c2ccc(N(C)CCO)cc2)cc1 | 0.4 °C | 18 µM | 4.48 | 4.50 | < 4.40 | < 4.40 | –
15 | OCCN1CCN(c2ccc(-c3nc4ccc(F)cc4nc3-c3ccc(N4CCN(CCO)CC4)cc3)cc2)CC1 | 3.2 °C | 6.3 µM | 5.74 | 4.89 | 4.98 | 5.35 | –
16 | OCCN1CCN(c2ccc(-c3nc4cc5ccccc5cc4nc3-c3ccc(N4CCN(CCO)CC4)cc3)cc2)CC1 | 1.9 °C | 2.8 µM | 5.60 | 5.31 | 4.74 | 5.18 | –
